The source of these data is patent publication US10988466B2, “Heterocyclic derivatives useful as SHP2 inhibitors” (Jacobio Pharmaceuticals Co., Ltd., priority 2017, dated 2021).

The inhibition is the relative decrease from the control value, in per cent. For orientation: IC50 means the concentration that inhibits the measured activity by half.

Each structure is given as a SMILES string. Read-outs that look alike come from different tables or passages of the source.

One experiment deals with T1, SHP2 (Homo sapiens, UniProt Q06124).
T1 sequence (Q06124 1-593): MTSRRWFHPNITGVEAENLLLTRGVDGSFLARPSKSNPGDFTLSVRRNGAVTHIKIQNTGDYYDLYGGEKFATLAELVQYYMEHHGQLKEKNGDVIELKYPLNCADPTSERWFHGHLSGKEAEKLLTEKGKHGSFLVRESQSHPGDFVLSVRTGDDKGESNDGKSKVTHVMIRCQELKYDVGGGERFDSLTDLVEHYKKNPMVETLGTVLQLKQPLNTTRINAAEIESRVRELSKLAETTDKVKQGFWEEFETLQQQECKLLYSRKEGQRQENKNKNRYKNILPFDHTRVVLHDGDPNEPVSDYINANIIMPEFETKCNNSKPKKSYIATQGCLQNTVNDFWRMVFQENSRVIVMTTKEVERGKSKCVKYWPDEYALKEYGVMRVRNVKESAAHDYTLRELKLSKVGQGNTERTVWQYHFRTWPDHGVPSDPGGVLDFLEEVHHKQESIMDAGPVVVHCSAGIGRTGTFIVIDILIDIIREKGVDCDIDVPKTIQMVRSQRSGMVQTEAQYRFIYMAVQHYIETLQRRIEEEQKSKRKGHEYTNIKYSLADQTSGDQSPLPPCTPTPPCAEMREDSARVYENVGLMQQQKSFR
Nature of the experiment: biochemical. The conditions noted are these: read-out: SHP2 inhibition (%)@0.1 μM.

The next experiment has as its system MV-4-11. Nature of the experiment: Cell proliferation assay (MTS/PMS). It counts as cell-based. Conditions: Homo sapiens, MV4-11.
Setting [1] is: MV-4-11 cell proliferation, MTS/PMS readout at day 8, compounds added 24 hours after plating, read-out: IC50.

Turning to `COc1cccc2c1CC1(CCN(c3cnc(Sc4ccnc(N)c4Cl)c(N)n3)CC1)[C@@H]2N` [Example 14, (S)-1′-(6-amino-5-((2-amino-3-chloropyridin-4-yl)thio)pyrazin-2-yl)-4-methoxy-1,3-dihydrospiro[2,4′-piperidin]-1-amine], the inhibition at 0.1 µM on SHP2 came to 82%. In addition, the IC50 with MV-4-11 (setting [1]) amounted to 6 nM.

Take `Nc1nc(N2CCC3(CC2)Oc2ccccc2[C@H]3N)cnc1Sc1ccnc(N)c1Cl` [Example 45, (R)-1′-(6-amino-5-((2-amino-3-chloropyridin-4-yl)thio)pyrazin-2-yl)-3H-spiro[benzofuran-2,4′-piperidin]-3-amine]: the inhibition at 0.1 µM on SHP2 is 68%. In addition, the IC50 in the experiment with MV-4-11 was found to be 2.5 nM.

Turning to `Nc1nccc(Sc2cnc(N3CCC4(CC3)Oc3ccccc3[C@H]4N)cn2)c1Cl` [Example 56, (R)-1′-(5-((2-amino-3-chloropyridin-4-yl)thio)pyrazin-2-yl)-3H-spiro[benzofuran-2,4′-piperidin]-3-amine], on SHP2, the inhibition at 0.1 µM was 71%. In the experiment with MV-4-11 (setting [1]), the IC50 was found to be 10.4 nM.

For the compound `Nc1nc(N2CCC3(CC2)Cc2nc4ccccc4cc2[C@H]3N)cnc1Sc1ccnc(N)c1Cl` [Example 64, (S)-1′-(6-amino-5-((2-amino-3-chloropyridin-4-yl)thio)pyrazin-2-yl)-1,3-dihydrospiro[cyclopenta [b]quinoline-2, 4′-piperidin]-1-amine], at SHP2, the inhibition at 0.1 µM was found to be 66%. Also, the IC50 in the experiment on MV-4-11 (setting [1]) worked out at 8.1 nM.

On to `Nc1nccc(Sc2cnc(N3CCC4(CC3)Cc3nc(Cl)sc3[C@H]4N)cn2)c1Cl` [Example 68, (S)-1′-(5-((2-amino-3-chloropyridin-4-yl)thio)pyrazin-2-yl)-2-chloro-4,6-dihydrospiro[cyclopenta [d]thiazole-5,4′-piperidin]-amine], for which the inhibition at 0.1 µM at SHP2 was determined as 82%. Also, in the experiment on MV-4-11 (setting [1]), the IC50 turned out to be 4.9 nM.

As to `Nc1nc(N2CCC3(CC2)Cc2nc(Cl)sc2[C@H]3N)cnc1Sc1ccnc(N)c1Cl` [Example 69, (S)-1′-(6-amino-5-((2-amino-3-chloropyridin-4-yl)thio)pyrazin-2-yl)-2-chloro-4,6-dihydro-spiro[cyclopenta[d]thiazole-5,4′-piperidin]-6-amine], at SHP2, the inhibition at 0.1 µM is 89%. Moreover, the IC50 with MV-4-11 (setting [1]) was 4 nM.

Take `Nc1nccc(Sc2cnc(N3CCC4(CC3)Nc3ccccc3[C@H]4N)cn2)c1Cl` [Example 71, (R)-1′-(5-((2-amino-3-chloropyridin-4-yl)thio)pyrazin-2-yl)spiro[indoline-2, 4′-piperidin]-3-amine]: at SHP2, the inhibition at 0.1 µM worked out at 86%. Also, the IC50 with MV-4-11 (setting [1]) was 13 nM.

In the case of `Nc1nc(N2CCC3(CC2)Cc2ncccc2[C@H]3N)cnc1Sc1ccnc2ccccc12` [Example 83, (S)-1′-(6-amino-5-(quinolin-4-yl-thio)pyrazin-2-yl)-5,7-dihydrospiro [cyclopenta[b]pyridine-6,4′-piperidin]-5-amine], the inhibition at 0.1 µM at SHP2 stood at 91%. Further, the IC50 with MV-4-11 (setting [1]) was determined as 16 nM.

On to `Nc1nc(N2CCC3(CC2)Cc2ncccc2[C@H]3N)cnc1Sc1ccnc(N)c1F` [Example 91, (S)-1′-(6-amino-5-((2-amino-3-fluoropyridin-4-yl)thio)pyrazin-2-yl)-5,7-dihydrospiro [cyclopenta [b]pyridine-6,4′-piperidin]-5-amine], for which the inhibition at 0.1 µM at SHP2 stood at 88%. Moreover, in the experiment on MV-4-11 (setting [1]), the IC50 was 12 nM.

As for `Nc1nccc(Sc2cnc(N3CCC4(CC3)Cc3ncccc3[C@H]4N)cn2)c1F` [Example 92, (S)-1′-(5-((2-amino-3-fluoropyridin-4-yl)thio)pyrazin-2-yl)-5,7-dihydrospiro[cyclopenta [b]pyridine-6,4′-piperidin]-5-amine], the inhibition at 0.1 µM at SHP2 came out at 92%. Also, the IC50 in the experiment with MV-4-11 (setting [1]) was found to be 9 nM.

Consider `Nc1nccc(Sc2cnc(N3CCC4(CC3)Cc3sc(Cl)nc3[C@H]4N)cn2)c1Cl` [Example 95, (S)-1′-(5-((2-amino-3-chloropyridin-4-yl)thio)pyrazin-2-yl)-2-chloro-4,6-dihydrospiro [cyclopenta[d]thiazole-5,4′-piperidin]-4-amine], for which the inhibition at 0.1 µM on SHP2 is 73%. For the same compound, the IC50 with MV-4-11 (setting [1]) worked out at 10 nM.

As to `Nc1nc(N2CCC3(CC2)Cc2ncccc2[C@H]3N)cnc1Sc1ccnc(Cl)c1Cl` [Example 105, (S)-1′-(6-amino-5-((2,3-dichloro-pyridin-4-yl)thio)pyrazin-2-yl)-5,7-dihydrospiro[cyclo-penta[b]pyridine-6,4′-piperidin]-5-amine], the IC50 in the experiment with MV-4-11 (setting [1]) is 11 nM.

For the compound `N[C@@H]1c2cccnc2CC12CCN(c1cnc(Sc3ccnc(O)c3Cl)cn1)CC2` [Example 135, (S)-4-((5-(5-amino-5,7-dihydrospiro [cyclopenta[b]pyridine-6,4′-piperidin]-1′-yl)pyrazin-2-yl)thio)-3-chloropyridin-2-ol], the inhibition at 0.1 µM at SHP2 is 86%.

As for `Nc1nc(N2CCC3(CC2)Cc2ncccc2[C@H]3N)cnc1Sc1ccnc(O)c1Cl` [Example 136, (S)-4-((3-amino-5-(5-amino-5,7-dihydrospiro[cyclopenta[b]pyridine-6,4′-piperidin]-1′-yl)pyrazin-2-yl)thio)-3-chloropyridin-2-ol], the inhibition at 0.1 µM on SHP2 came to 83%.

As for `Nc1nc(N2CCC3(CC2)Cc2c(O)cccc2[C@H]3N)cnc1Sc1ccnc(N)c1Cl` [Example 138, (S)-1-amino-1′-(6-amino-5-((2-amino-3-chloropyridin-4-yl)thio)pyrazin-2-yl)-1,3-dihydrospiro[indene-2,4′-piperidin]-4-ol], at SHP2, the inhibition at 0.1 µM came out at 82%.

Take `Nc1nc(N2CCC3(CC2)Cn2ccc(=O)cc2C3N)cnc1Sc1ccnc(N)c1Cl` (stereo not shown) [Example 140, 1-amino-1′-(6-amino-5-((2-amino-3-chloropyridin-4-yl)thio)pyrazin-2-yl)-3H-spiro[indolizine-2,4′-piperidin]-7(1H)-one]: the inhibition at 0.1 µM on SHP2 was 14%.

For `Nc1nc(N2CCC3(CC2)Cn2c(cccc2=O)C3N)cnc1Sc1ccnc(N)c1Cl` (stereo not shown) [Example 141, 1-amino-1′-(6-amino-5-((2-amino-3-chloropyridin-4-yl)thio)pyrazin-2-yl)-3H-spiro[indolizine-2,4′-piperidin]-5(1H)-one], the inhibition at 0.1 µM on SHP2 was 41%.

Consider `N=C1c2ccccc2CC12CCN(c1cnc(Sc3ccnc(N)c3Cl)c(N)n1)CC2` [Example 142, 3-((2-amino-3-chloropyridin-4-yl)thio)-6-(1-imino-1,3-dihydrospiro[indene-2,4′-piperidin]-1′-yl)pyrazin-2-amine], for which the inhibition at 0.1 µM at SHP2 is 17%.

As for `COc1ccc2c(c1)CC1(CCN(c3cnc(Sc4ccnc(N)c4Cl)c(N)n3)CC1)C2=N` [Example 143, 3-((2-amino-3-chloropyridin-4-yl)thio)-6-(1-imino-5-methoxy-1,3-dihydro-spiro[indene-2,4′-piperidin]-1′-yl)pyrazin-2-amine], on SHP2, the inhibition at 0.1 µM was 72%.

In the case of `N=C1c2csc(Br)c2CC12CCN(c1cnc(Sc3ccnc(N)c3Cl)c(N)n1)CC2` [Example 145, 3-((2-amino-3-chloropyridin-4-yl)thio)-6-(1-bromo-4-imino-4H,6H-spiro [cyclopenta[c]thiophene-5,4′-piperidin]-1′-yl)pyrazin-2-amine], the inhibition at 0.1 µM at SHP2 is 79%.

On to `COc1cccc2c1C(N)C1(CCN(c3cnc(Sc4ccnc(N)c4Cl)c(N)n3)CC1)C2` (stereo not shown) [Example 148, 1′-(6-amino-5-((2-amino-3-chloropyridin-4-yl)thio)pyrazin-2-yl)-7-methoxy-1,3-dihydrospiro[indene-2,4′-piperidin]-1-amine], for which, at SHP2, the inhibition at 0.1 µM was 72%.

In the case of `Nc1nc(N2CCC3(CC2)Cc2ccccc2/C3=N\O)cnc1Sc1ccnc(N)c1Cl` [Example 149, (Z)-1′-(6-amino-5-((2-amino-3-chloropyridin-4-yl)thio)pyrazin-2-yl) spiro[indene-2,4′-piperidin]-1(3H)-one oxime], the inhibition at 0.1 µM at SHP2 stood at 28%.

For `Nc1nccc(Sc2cnc(N3CCC4(CC3)Cc3scnc3C4N)cn2)c1Cl` (stereo not shown) [Example 154, 1′-(5-((2-amino-3-chloropyridin-4-yl)thio)pyrazin-2-yl)-4,6-dihydrospiro[cyclopenta[d]thiazole-5,4′-piperidin]-4-amine], the inhibition at 0.1 µM on SHP2 was 82%.

On to `Nc1nc(N2CCC3(CC2)Cc2ccccc2[C@H]3N)cnc1Sc1cccc2[nH]cc(F)c12` [Example 157, (S)-1′-(6-amino-5-((3-fluoro-1H-indol-4-yl)thio)pyrazin-2-yl)-1,3-dihydrospiro[indene-2,4′-piperidin]-1-amine], for which, at SHP2, the inhibition at 0.1 µM was found to be 78%.

For the compound `CC(=O)c1ccc2c(c1)[C@@H](N)C1(CCN(c3cnc(Sc4ccnc(N)c4Cl)c(N)n3)CC1)C2` [Example 158, (S)-1-(1-amino-1′-(6-amino-5-((2-amino-3-chloropyridin-4-yl)thio)pyrazin-2-yl)-1,3-dihydrospiro[indene-2,4′-piperidin]-6-yl)ethan-1-one], the inhibition at 0.1 µM on SHP2 was 90%.

Consider `CC(=O)c1cccc2c1CC1(CCN(c3cnc(Sc4ccnc(N)c4Cl)c(N)n3)CC1)[C@@H]2N` [Example 159, (S)-1-(1-amino-1′-(6-amino-5-((2-amino-3-chloropyridin-4-yl)thio)pyrazin-2-yl)-1,3-dihydrospiro[indene-2,4′-piperidin]-4-yl)ethan-1-one], for which the inhibition at 0.1 µM on SHP2 turned out to be 88%.
